Reference: ChEMBL document CHEMBL1201862, “PubChem BioAssay data set” (2004)
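1) Cells in 96-well plates. 2) Compound, 48 h, 5 concentrations. 3) Linear interpolation between surrounding doses. 4) Unreached endpoint = highest concentration. GI50: concentration for 50% inhibition of growth.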 Calls of active or inactive are those of the source. No stated cut-off is given here; in the data, active = GI50 up to about 1.1 µM and inactive = higher. Square brackets hold non-standard residues; d marks the D form. Peptide text beside a SMILES is read from it. * marks the point of attachment. AllylGly = C=CC[CH](N)C(=O)O; Boc = CC(C)(C)OC(=O)*; OtBu = CC(C)(C)O*

Legend:
Experiment in all cases: NCI anticancer screen, dose series, 48 h
IGROV-1 = system: IGROV-1
BT-549 = system: BT-549
PC-3 = system: PC-3
ACHN = system: ACHN
SK-MEL-2 = system: SK-MEL-2
786-0 = system: 786-0
TK-10 = system: TK-10
A498 = system: A498
NCI/ADR-RES = system: NCI/ADR-RES
SF-268 = system: SF-268
MDA-N = system: MDA-N
HL-60 = system: HL-60
HOP-62 = system: HOP-62
M14 = system: M14
MDA-MB-231 = system: MDA-MB-231
HOP-92 = system: HOP-92
OVCAR-4 = system: OVCAR-4
KM-20L2 = system: KM-20L2
DMS-114 = system: DMS-114

Row | SMILES | GI50 (IGROV-1) | GI50 (BT-549) | GI50 (PC-3) | GI50 (ACHN) | GI50 (SK-MEL-2) | GI50 (786-0) | GI50 (TK-10) | GI50 (A498) | GI50 (NCI/ADR-RES) | GI50 (SF-268) | GI50 (MDA-N) | GI50 (HL-60) | GI50 (HOP-62) | GI50 (M14) | GI50 (MDA-MB-231) | GI50 (HOP-92) | GI50 (OVCAR-4) | GI50 (KM-20L2) | GI50 (DMS-114)
1 | CC12CC3(O)OC(O1)C1(COC(=O)c4ccccc4)C3CC21OC1OC(CO)C(O)C(O)C1O (configuration not stated) | > 100 µM (inactive) | > 100 µM (inactive) | > 100 µM (inactive) | > 100 µM (inactive) | > 100 µM (inactive) | > 100 µM (inactive) | > 100 µM (inactive) | > 100 µM (inactive) | > 100 µM (inactive) | > 100 µM (inactive) | > 100 µM (inactive) | > 100 µM (inactive) | > 100 µM (inactive) | > 100 µM (inactive) | > 100 µM (inactive) | > 100 µM (inactive) | > 100 µM (inactive) | – | –
2 | Cc1ccc(/N=N/c2c(O)ccc3cc(S(=O)(=O)O)cc(S(=O)(=O)O)c23)cc1 | > 100 µM (inactive) | > 100 µM (inactive) | > 100 µM (inactive) | > 100 µM (inactive) | > 100 µM (inactive) | > 100 µM (inactive) | > 100 µM (inactive) | > 100 µM (inactive) | > 100 µM (inactive) | > 100 µM (inactive) | > 100 µM (inactive) | > 100 µM (inactive) | > 100 µM (inactive) | > 100 µM (inactive) | > 100 µM (inactive) | > 100 µM (inactive) | > 100 µM (inactive) | – | –
3 | CCOC(=O)CN1C(=O)c2ccc(NC(=O)C(=O)O)cc2S1(=O)=O | > 100 µM (inactive) | > 100 µM (inactive) | > 100 µM (inactive) | > 100 µM (inactive) | > 100 µM (inactive) | > 100 µM (inactive) | > 100 µM (inactive) | > 100 µM (inactive) | > 100 µM (inactive) | > 100 µM (inactive) | > 100 µM (inactive) | > 100 µM (inactive) | > 100 µM (inactive) | > 100 µM (inactive) | > 100 µM (inactive) | > 100 µM (inactive) | > 100 µM (inactive) | – | –
4 | Cc1ccc2c3ccc4c(c3n(C)c2c1)C(=O)C=CC4=O | > 10 µM (inactive) | 3.32 µM (inactive) | > 10 µM (inactive) | 3.51 µM (inactive) | 9.95 µM (inactive) | 2.33 µM (inactive) | 4.82 µM (inactive) | > 10 µM (inactive) | > 5.89 µM (inactive) | > 10 µM (inactive) | 4.94 µM (inactive) | 1.04 µM (active) | > 10 µM (inactive) | 3.66 µM (inactive) | 3.97 µM (inactive) | 3.1 µM (inactive) | > 5.12 µM (inactive) | – | –
5 | c1csc(-c2cscc2-c2ccsc2)c1 | 68.9 µM (inactive) | > 100 µM (inactive) | > 43.8 µM (inactive) | > 83.9 µM (inactive) | 52.2 µM (inactive) | > 63.1 µM (inactive) | > 100 µM (inactive) | > 96.8 µM (inactive) | 48.1 µM (inactive) | 75 µM (inactive) | 33.3 µM (inactive) | 30.5 µM (inactive) | 42.3 µM (inactive) | 54.1 µM (inactive) | > 100 µM (inactive) | > 86.5 µM (inactive) | 44.5 µM (inactive) | – | –
6 | COc1cc(S(=O)(=O)Nc2nc(-c3ccc(/N=C/c4cccs4)cc3)cs2)ccc1Cl | 33.7 µM (inactive) | 37 µM (inactive) | 76.2 µM (inactive) | > 100 µM (inactive) | 39.5 µM (inactive) | > 100 µM (inactive) | > 100 µM (inactive) | > 100 µM (inactive) | > 100 µM (inactive) | 56.6 µM (inactive) | > 100 µM (inactive) | 33.9 µM (inactive) | > 100 µM (inactive) | > 100 µM (inactive) | 95.1 µM (inactive) | 37.2 µM (inactive) | 38.9 µM (inactive) | – | –
7 | C=CCC(NC(=O)C(CC(=O)OC(C)(C)C)NC(=O)OC(C)(C)C)C(=O)OC (configuration not stated) (Boc-Asp(OtBu)-[AllylGly]-OMe; configuration not given here) | > 100 µM (inactive) | > 100 µM (inactive) | > 100 µM (inactive) | > 100 µM (inactive) | 73.3 µM (inactive) | > 100 µM (inactive) | > 100 µM (inactive) | > 100 µM (inactive) | > 100 µM (inactive) | 51.2 µM (inactive) | 31 µM (inactive) | 30.1 µM (inactive) | > 64.1 µM (inactive) | 20.2 µM (inactive) | > 100 µM (inactive) | > 78.2 µM (inactive) | > 100 µM (inactive) | – | –
8 | O=C(/N=c1/[nH]/c(=N/C(=O)c2ccccc2)ss1)c1ccccc1 | 6.64 µM (inactive) | – | – | 13.8 µM (inactive) | 19.4 µM (inactive) | 25.5 µM (inactive) | 26.1 µM (inactive) | 23.4 µM (inactive) | – | 25.8 µM (inactive) | – | 14.7 µM (inactive) | 21.9 µM (inactive) | 27.9 µM (inactive) | – | – | 38.1 µM (inactive) | 29.5 µM (inactive) | 26.7 µM (inactive)
